Measurements as given in US5532263A, “Benzothiopyranoindazole antitumor agents” (priority 1995, dated 1996).
Counter-ions that a name gives are not always drawn. Like-named read-outs stand apart in the source and are kept apart here.

Legend:
[1] = tested as an antitumor agent (literature); cited from earlier work
[2] = test system: P388 mouse leukemia cells; assay: In vitro cytotoxicity: clonogenic survival in soft agar; assay type: cell-based; settings: read-out: in vitro cytox IC50
Procedure: In Vitro Cytotoxicity This is measured by quantifying clonogenic survival in soft agar following a 1 hour transient exposure of P388 mouse leukemia cells to drug.

HeLa cell topo II = HeLa cell topo II (Homo sapiens, UniProt P11388); assay: Topoisomerase II inhibition: promotion of covalent complex formation between pBR322 DNA and topo II (SDS/K+ precipitation); assay type: biochemical; settings: read-out: topo II inhib EC50
Sequence of HeLa cell topo II (P11388 whole entry): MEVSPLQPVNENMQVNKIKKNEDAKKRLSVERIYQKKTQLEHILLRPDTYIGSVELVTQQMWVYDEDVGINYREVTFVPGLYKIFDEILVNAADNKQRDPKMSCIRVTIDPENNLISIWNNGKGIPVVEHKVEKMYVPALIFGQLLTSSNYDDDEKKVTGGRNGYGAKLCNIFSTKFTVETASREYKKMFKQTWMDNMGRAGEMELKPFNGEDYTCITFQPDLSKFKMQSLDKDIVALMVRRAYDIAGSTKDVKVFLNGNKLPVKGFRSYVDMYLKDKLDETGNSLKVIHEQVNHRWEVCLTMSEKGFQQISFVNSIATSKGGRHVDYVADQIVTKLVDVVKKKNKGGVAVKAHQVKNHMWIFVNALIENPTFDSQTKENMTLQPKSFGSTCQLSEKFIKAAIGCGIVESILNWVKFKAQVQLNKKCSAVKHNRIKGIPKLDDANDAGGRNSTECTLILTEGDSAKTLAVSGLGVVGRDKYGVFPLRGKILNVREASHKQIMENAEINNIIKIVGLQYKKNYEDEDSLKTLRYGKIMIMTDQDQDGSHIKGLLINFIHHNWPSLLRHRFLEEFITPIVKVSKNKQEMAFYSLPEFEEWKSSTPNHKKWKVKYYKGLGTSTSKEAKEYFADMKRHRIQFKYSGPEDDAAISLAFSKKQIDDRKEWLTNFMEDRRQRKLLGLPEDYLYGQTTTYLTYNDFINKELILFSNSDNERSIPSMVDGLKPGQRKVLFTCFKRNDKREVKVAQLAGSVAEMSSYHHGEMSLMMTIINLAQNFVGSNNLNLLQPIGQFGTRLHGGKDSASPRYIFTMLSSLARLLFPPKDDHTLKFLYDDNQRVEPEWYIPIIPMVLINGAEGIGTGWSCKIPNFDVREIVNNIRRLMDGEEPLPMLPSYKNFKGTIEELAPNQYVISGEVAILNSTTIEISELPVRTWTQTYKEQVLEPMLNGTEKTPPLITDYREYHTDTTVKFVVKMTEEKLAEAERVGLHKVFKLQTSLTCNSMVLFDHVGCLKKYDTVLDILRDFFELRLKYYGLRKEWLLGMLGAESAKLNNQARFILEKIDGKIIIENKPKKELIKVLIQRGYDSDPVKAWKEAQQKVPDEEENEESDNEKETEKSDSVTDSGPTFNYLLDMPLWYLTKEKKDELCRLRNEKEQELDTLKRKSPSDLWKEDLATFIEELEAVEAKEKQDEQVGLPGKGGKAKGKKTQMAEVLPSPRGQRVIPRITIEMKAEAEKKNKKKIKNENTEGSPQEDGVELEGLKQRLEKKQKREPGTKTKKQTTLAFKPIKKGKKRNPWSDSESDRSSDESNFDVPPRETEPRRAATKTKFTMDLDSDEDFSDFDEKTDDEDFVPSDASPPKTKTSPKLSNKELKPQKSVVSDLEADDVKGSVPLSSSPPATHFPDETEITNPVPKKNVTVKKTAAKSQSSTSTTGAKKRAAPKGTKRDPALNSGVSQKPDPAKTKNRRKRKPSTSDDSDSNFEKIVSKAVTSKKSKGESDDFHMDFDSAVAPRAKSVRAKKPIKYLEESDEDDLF

calf thymus DNA = assay: DNA intercalation: ethidium bromide displacement assay; assay type: binding; settings: displacement of 50% of calf thymus DNA bound ethidium bromide; average of two determinations
Description: A known ethidium bromide displacement assay is used to determine intercalation potency.

[3] = Murine antitumor activity versus Pancreatic Ductal Adenocarcinoma #03; assay type: in vivo; settings: mouse, in vivo, iv; administered intravenously, total dose; mice, Panc 03 study; read-out: MTD (maximum tolerated total dose)
Description: (§1) Murine Antitumor Activaty Versus Pancreatic Ductal Adenocarcinoma #03.
(§2) This is tumor growth inhibition, where T is the medium tumor burden in the treatment group times 100 at evaluation and C is the medium tumor burden in the control group at evaluation.
(§3) This is the maximum tolerated total dose administered intravenously in mg/kg.
(§4) This means the long term cures, the number of mice in the treatment group with no palpable tumor evidents after a minimum of 86 days/total number in treatment group. […]

[4] = test system: Pancreatic Ductal Adenocarcinoma #03 (Panc 03); assay: as above; assay type: in vivo; settings: versus Panc 03; for LTC (long term cures): mice with no palpable tumor after a minimum of 86 days/total number in treatment group; for % T/C (tumor growth inhibition): intravenous, T/C <42% considered significant
Description: as §1, §2, §3, §4

[5] = P388, 1 hour transient exposure, 50% reduction of clonogenic survival in soft agar
[6] = DNA precipitated equivalent to 50% of the maximum precipitated by m-AMSA
[7] = footnote j: first dose administered 4 days after tumor implantation
[8] = footnote k: bell-shaped dose response curve noted when determining the EC50, relative to 50% of m-AMSA maximum

Row | Compound | antitumor activity [1] | IC50 [2, 5] | EC50 (HeLa cell topo II; [6]) | EC50 (calf thymus DNA) | MTD [3] | LTC (long term cures) [4] | % T/C (tumor growth inhibition) [4] | % T/C (tumor growth inhibition) [4, 7] | EC50 (HeLa cell topo II; [8]) | IC50 ([2]; P388, 1 h)
1 | Cc1ccc2[nH]nc3c2c1Sc1ccccc1-3 [5-methyl-2H-[1]benzothiopyrano[4,3,2-cd]indazole] | inactive | – | – | – | – | – | – | – | – | –
2 | CCN(CC)CCn1nc2c3c(c(CNC=O)ccc31)Sc1ccccc1-2 [Ex 5] | – | 330 nM | > 260000 nM | 1500 nM | 81 mg/kg | 0/5 | 0% | – | – | –
3 | CCN(CC)CCn1nc2c3c(c(CNC=O)ccc31)Sc1ccc(OC)cc1-2 [Ex 6] | – | 55000 nM | > 240000 nM | 1900 nM | 231 mg/kg | 3/5 | 0% | – | – | –
4 | CCN(CC)CCn1nc2c3c(c(CN)ccc31)Sc1ccccc1-2 [Ex 8] | – | 5800 nM | > 250000 nM | 120 nM | 72 mg/kg | 0/5 | – | 25% | – | –
5 | CCN(CC)CCn1nc2c3c(c(CN)ccc31)Sc1ccc(OC)cc1-2 [Ex 9] | – | 13000 nM | > 260000 nM | 130 nM | 240 mg/kg | 3/4 | – | 0% | – | –
6 | CCN(CC)CCn1nc2c3c(c(CNC)ccc31)Sc1ccccc1-2 [Ex 10, N-methyl-2-[(2-(Diethylamino)ethyl]-2H-[1]-benzothiopyrano[4,3,2-cd]indazole-5-methanaminedihydrochloride hydrate] | – | 16000 nM | > 220000 nM | 180 nM | 326 mg/kg | 1/5 | 0% | – | – | –
7 | CCN(CC)CCn1nc2c3c(c(CNS(C)(=O)=O)ccc31)Sc1ccccc1-2 [Ex 11, N-[[2-[2-(Diethylamino)ethyl]-2H-[1]-benzothiopyrano[4,3,2-cd]indazol-5-yl]methyl]methanesulfonamide] | – | 500 nM | > 230000 nM | 1800 nM | 72 mg/kg | 0/5 | 0% | – | – | –
8 | CCN(CC)CCn1nc2c3c(c(CNS(C)(=O)=O)ccc31)Sc1ccc(OC)cc1-2 [Ex 12] | – | 30000 nM | > 210000 nM | 1600 nM | 208 mg/kg | 3/5 | 0% | – | – | –
9 | CCN(CC)CCn1nc2c3c(c(CNC(=O)OC)ccc31)Sc1ccccc1-2 [Ex 13, Methyl N-[[2-[(2-diethylamino)ethyl]-2H-[1]-benzothiopyrano(4,3,2-cd)indazol-5-yl]methyl) carbamate] | – | 500 nM | > 240000 nM | 2600 nM | 78 mg/kg | 3/5 | 0% | – | – | –
10 | CCN(CC)CCn1nc2c3c(c(CNC(=O)OC)ccc31)Sc1ccc(OC)cc1-2 [Ex 14] | – | 45000 nM | > 220000 nM | 790 nM | 170 mg/kg | 4/4 | – | 0% | – | –
11 | CCN(CC)CCn1nc2c3c(c(CNS(C)(=O)=O)ccc31)Sc1ccc(O)cc1-2 [Ex 15] | – | 4.4 nM | – | 2400 nM | 31 mg/kg | 0/5 | – | 0% | 550 nM | –
12 | CCN(CC)CCn1nc2c3c(c(CNC(=O)OC)ccc31)Sc1ccc(O)cc1-2 [Ex 16] | – | 11 nM | – | 1500 nM | 18 mg/kg | 0/5 | – | 13% | 330 nM | –
13 | CCN(CC)CCNc1ccc(CN(C)S(C)(=O)=O)c2sc3ccccc3c(=O)c12 [WIN33377, reference compound] | – | 301 nM | – | 18000 nM | 124 mg/kg | 3/5 | 0% | – | 3000 nM | –
14 | COc1cc(NS(C)(=O)=O)ccc1Nc1c2ccccc2nc2ccccc12 [mAMSA, reference compound] | – | – | – | 11000 nM | 48 mg/kg | 0/5 | 0% | – | – | 151 nM
